In brackets after ≈: the same amount, converted by molar mass. Like-named read-outs stand apart in the source and are kept apart here.
Tests used:
Type in all cases: cell-based
Helicobacter pylori = assay: Chessboard method, synergistic inhibitory effect of two monomers (FIC); conditions: monomer used alone, 72 hours
Protocol: The compositions 1, 2, 3, 4 and 5 are prepared according to Examples 1, 2, 3, 4 and 5, respectively. • 1.2. Strain • (1) Helicobacter pylori strains: standard strains 26695, NSH57, MSD132 and G27 are presented by Dr. Hongkai Bi of Nanjing Medical University; clinical metronidazole drug-resistant strains, clarithromycin drug-resistant strains, levofloxacin drug-resistant strains, levofloxacin and metronidazole drug-resistant strains, clarithromycin and metronidazole drug-resistant strains, levofloxacin and clarithromycin and metronidazole multi drug-resistant strains (HPBS001, HPBS002, HPBS003, and the like) are provided by the Research Center for the Prevention and Treatment of Drug Resistant Microbial Infections of Youjiang Medical University for Nationalities. • (2) Non Helicobacter pylori strains: Staphylococcus aureus, Escherichia coli, Pseudomonas aeruginosa, Acinetobacter baumannii, Klebsiella pneumoniae, Candida albicans, Enterobacter cloacae, Campylobacter jejuni, Bacillus subtilis, Proteus mirabilis, Lactobacillus campylobacter, Stenotrophomonas maltophilia, Morganella morganii, Candida tropicalis, Staphylococcus haemolyticus, Acetobacter, Saccharomyces cerevisiae, Enterobacter hormaechei well is provided by the Research Center for the Prevention and Treatment of Drug Resistant Microbial Infections of Youjiang Medical University for Nationalities. • 1.3 Main culture media and reagents: Columbia culture medium, Brain Heart Infusion Broth, nutrient agar culture medium, nutrient broth culture medium, MH culture medium, Sabouraud culture medium, standard calf serum. • 1.4 Main instruments: three gas incubator, centrifuge, microplate reader, electronic balance, and the like. • 1.5 Consumable materials: EP tube, tip, centrifuge tube, and the like. • 2. […]

Helicobacter pylori (Hp) = assay: screening of antibacterial components of traditional Chinese drug, MIC against Hp; conditions: monomer alone
Excerpt: The combination of different monomer compositions can resist bacteria, increase the action target of the composition, be conducive to improve the antibacterial effect and reduce the drug resistance of the composition. Therefore, in the present disclosure, according to the quality ratio of Zuojin pills, berberine, evolitrine, and tanshinone I are combined according to a certain quality ratio to inhibit Hp. This combination can synergistically enhance the inhibition of Hp, and is not easy to produce drug resistance, which has an extremely excellent effect on the treatment of Hp infection related diseases.

[1] = system: Helicobacter pylori G27 strain; assay: Drug resistance test, induction with 1/4 MIC for 24 days
Excerpt: Note: In 6:1:3 group, “>” refers to greater than 46.1+7. 7+23.1. • 2.4 Drug Resistance Test of Prepared 6:1:3 Composition • (1) The drug resistance of […] is detected with Helicobacter pylori G27 strain.

[2] = Helicobacter pylori, read-out: MIC

Row | SMILES | MIC (Helicobacter pylori; [2]) | MIC (Helicobacter pylori (Hp); [2]) | further results
1 | Cc1coc2c1C(=O)C(=O)c1c-2ccc2c(C)cccc12 [Tanshinone I, tanshinone I] |  |  | MIC (Helicobacter pylori): Tanshinone I (1 μg/mL); MIC (Helicobacter pylori (Hp)): 0.5 to 1 µg/mL
2 | COc1ccc2c(OC)c3ccoc3nc2c1 [Evolitrine, evolitrine] | 32 µg/mL | 16 to 32 µg/mL | 
3 | COc1ccc2cc3[n+](cc2c1OC)CCc1cc2c(cc1-3)OCO2 [Berberine, berberine] | 16 µg/mL | 16 to 32 µg/mL | 
4 | Cc1ncc([N+](=O)[O-])n1CCO [metronidazole] |  |  | MIC ([1]; Helicobacter pylori, G27STRAIN, before induction): 2 µg/mL (≈ 11.7 µM); MIC increase after induction ([1]; after 24 days of induction with 1/4 MIC, FIG. 3): 64 times
